This is an account of results in PMC4430595 (European Journal of Clinical Pharmacology, 2015).

Like-named read-outs stand apart in the source and are kept apart here.

The conditions of series [1]: human, in vivo.
Source text: Subjects included men and non-pregnant women and, in study A or B, respectively, were ≥18 years or 20–79 years of age with a body mass index of 18–36 or 18.5–34 kg/m^2. Subjects were either healthy or had mild, moderate or severe renal impairment.
Subjects were assigned to the renal impairment strata based on assessment during pre-study screening. For study A, strata assignment was based on CLcr calculated using the Cockcroft-Gault (C–G) equation [12] […] For study B, assignment was based on the estimated glomerular filtration rate (eGFR) using the Modification of Diet in Renal Disease formula [13] […] Summary statistics for Study B were also prepared using the C–G equation [12] with and without normalization to body surface area. Creatinine assays were performed at each clinical site using UV absorbance assays at 512 nm to detect the yellow–red complex formed from the reaction of creatinine and picric acid under alkaline conditions.
In subjects with end-stage renal disease (ESRD), haemodialysis was initiated 2–4 h after study drug administration (study A only). Haemodialysis sessions were 4 h in duration, and when possible, a similar type of dialyzer at a similar blood flow rate was used across haemodialysis subjects.
Blood samples (5–6 ml) were collected in sodium heparin glass tubes and stored chilled until the plasma was harvested by centrifugation and stored at approximately –70 °C or below until transferred frozen to a central laboratory for analysis. For subjects with varying degrees of renal impairment, samples were collected in study A pre-infusion, at 1, 2, 4, 6, 8, 12, 24, 36 and 48 h after the start of infusion for all groups and also at 72 and 96 h post-infusion for subjects with severe renal impairment or ESRD. In study B, samples were collected pre-infusion and at 0.5, 1, 1.5, 2, 3, 4, 6, 8, 10, 12, 16, 24, 36, 48, 60, 72, 84 and 96 h post-dose.
The method was linear over the range 0.25–100 μg/ml and the lower limit of quantification (LLQ) was 0.25 μg/ml. Dialysate samples from study A were analysed at a separate central laboratory (Covance Laboratories, Madison, WI, USA) using a similar validated LC–MS method. […] Study samples outside the calibration range were diluted and re-assayed. Dilution QC samples were included in batches where samples were diluted prior to analysis.
The CL reported for ESRD is the CL for the subjects (i.e., includes residual clearance and any dialysis clearance).
For series [2] the following is noted: data on file, cited from earlier work.

The t½ is how long it takes for the measured level to halve. For the substance hydroxypropylbetadex, the “CL (clearance)” value in series [1] is 9.8 ± 4.3/0 mL/h/kg. Besides, the figures for the t½ in series [2] (previously studied patients with severe renal impairment) and in series [2] (subjects with normal renal function) were 15.6 ± 6.0 h and 2.5 ± 0.84 h, respectively.
